From US7009052B2, “Sulfonamide derivatives” (Warner Lambert Company LLC, priority 2003, dated 2006) come the findings set out here.

In the assay the target is T1, androgen receptor (Homo sapiens, UniProt P10275).
T1 sequence (P10275 1-920 Q868H): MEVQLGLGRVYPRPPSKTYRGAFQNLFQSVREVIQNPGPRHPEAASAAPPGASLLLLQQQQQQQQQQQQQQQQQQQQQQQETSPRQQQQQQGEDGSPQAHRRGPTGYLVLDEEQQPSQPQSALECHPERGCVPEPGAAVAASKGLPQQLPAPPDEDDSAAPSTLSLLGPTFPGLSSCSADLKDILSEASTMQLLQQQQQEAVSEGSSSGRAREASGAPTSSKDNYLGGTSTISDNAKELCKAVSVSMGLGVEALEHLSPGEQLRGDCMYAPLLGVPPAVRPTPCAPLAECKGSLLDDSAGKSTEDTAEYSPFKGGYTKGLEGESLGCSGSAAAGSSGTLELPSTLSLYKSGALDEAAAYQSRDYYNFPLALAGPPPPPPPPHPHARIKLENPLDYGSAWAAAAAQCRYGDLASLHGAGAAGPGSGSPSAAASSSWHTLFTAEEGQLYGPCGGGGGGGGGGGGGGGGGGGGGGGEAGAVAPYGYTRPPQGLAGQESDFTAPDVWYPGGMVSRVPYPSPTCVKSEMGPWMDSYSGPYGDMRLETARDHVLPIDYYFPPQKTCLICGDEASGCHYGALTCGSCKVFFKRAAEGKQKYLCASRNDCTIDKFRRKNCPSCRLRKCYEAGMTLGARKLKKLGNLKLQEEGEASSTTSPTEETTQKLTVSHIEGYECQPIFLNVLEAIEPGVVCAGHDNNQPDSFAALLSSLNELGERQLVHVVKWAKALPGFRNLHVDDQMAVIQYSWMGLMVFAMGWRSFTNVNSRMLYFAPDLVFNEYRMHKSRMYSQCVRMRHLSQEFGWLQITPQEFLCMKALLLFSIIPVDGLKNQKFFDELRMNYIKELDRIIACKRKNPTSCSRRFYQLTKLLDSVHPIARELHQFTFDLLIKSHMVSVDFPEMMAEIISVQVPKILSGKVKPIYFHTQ
Briefly: AR Antagonist Cell Assay (MMTV-luciferase reporter, DHT-induced). Type of assay: cell-based. The following applies: MDA-MB453-MMTV clone 54-19 cells, 100 pM DHT, 17 hr. As for the experimental part: The compounds ability to antagonize the effects of androgen on the androgen receptor were determined in the protocol described immediately below.
Experimental Procedure for AR Antagonist Cell Assay
Cell line: MDA-MB453-MMTV clone 54-19. This cell line is a stable transfected cell line with MDA-MB453 cell background (human breast tumor cell expressing high level of androgen receptor). A MMTV minimal promoter containing ARE was first cloned in front of a firefly luciferase reporter gene. Then the cascade was cloned into transfection vector pUV120puro. Electroporation method was used for transfecting MDA-MB-453 cell. Puromycin resistant stable cell line was selected.
Cell Culture Media and Reagents:
Culture medium: DMEM (high glucose, Gibco cat #: 11960-044), 10% FBS, and 1% L-glutamine
Plating medium: DMEM (phenol red free), 10% charcoal treated HyClone serum, 1% L-glutamine
Assay medium: DMEM (phenol red free), 1% charcoal treated HyClone serum, 1% L-glutamine, and 1% penicillin/streptomycin
3× luciferase buffer: 2% beta-mercaptoethanol, 0.6% ATP, 0.0135% luciferine in cell lysis buffer
• 1. Cells are maintained in culture medium, splitting cells when they reach 80–90% confluence • 2. To test compounds, 10,000 cells/well are plated to opaque 96 cell culture plate in 100 ul/well plating medium, culture for overnight at 37° C. in cell culture incubator • 3. Carefully remove plating medium, then add 80 ul/well of pre-warmed assay medium, add 10 ul/well testing compound (final concentration at 10 uM or 1 uM), incubate at 37° C. for 30 minutes • 4. Add 10 ul/well freshly prepared DHT (final concentration at 100 pM) to each well, incubate at 37° C. for 17 hr (overnight) • 5. Add 50 ul/well 3× luciferase buffer, incubate at room temperature for 5 minutes, then count on Luminometer The fold induction over background by 100 pM DHT in the absence of testing compounds is standardized as 100% and experimental result is expressed as percentage of inhibition by testing compounds. TABLE3
Background: In a reporter assay the amount or activity of a reporter protein is the signal.

By IC50 is commonly meant the point on the concentration scale where inhibition reaches its midpoint. Low readings indicate greater potency in that assay, high ones weaker potency in that assay. `CCCCN(C)S(=O)(=O)c1ccc2c(c1)c(C(F)(F)F)cc(=O)n2C` [Example 8, 1-Methyl-2-oxo-4-trifluoromethyl-1,2-dihydroquinoline-6-sulfonicacid butyimethylamide]: the IC50 is > 10 µM.
For `O=c1cc(C(F)(F)F)c2cc(S(=O)(=O)NCc3cccc(Cl)c3F)ccc2[nH]1` [Example 141, 2-Oxo-4-trifluoromethyl-1,2-dihydroquinoline-6-sulfonic acid3-chloro-2-fluorobenzylamide], the IC50 was > 10 µM.
In turn, `O=c1cc(C(F)(F)F)c2cc(S(=O)(=O)NCCc3ccccc3)ccc2[nH]1` [Example 128, 2-Oxo-4-trifluoromethyl-1,2-dihydroquinoline-6-sulfonic acidphenethylamide] returned an IC50 of 2.65 µM. This counts as single-digit micromolar.
As for `CSc1ccccc1CNS(=O)(=O)c1ccc2oc(=O)cc(C(F)(F)F)c2c1` [Example 66, 2-Oxo-4-trifluoromethyl-2H-chromene-6-sulfonic acid 2-methylsulfanylbenzylamide], the IC50 is > 10 µM.
As to `CCCCCN(CCO)S(=O)(=O)c1ccc2c(c1)c(C(F)(F)F)cc(=O)n2C` [Example 7, 1-Methyl-2-oxo-4-trifluoromethyl-1,2-dihydroquinoline-6-sulfonicacid (2-hydroxyethyl)-pentylamide], the IC50 was > 10 µM.
The compound `O=c1cc(C(F)(F)F)c2cc(S(=O)(=O)NCc3ccccc3Br)ccc2[nH]1` [Example 156, 2-Oxo-4-trifluoromethyl-1,2-dihydroquinoline-6-sulfonic acid2-bromobenzylamide] yielded a half-inhibitory concentration (IC50) of 2.16 µM.
`Cn1c(=O)cc(C(F)(F)F)c2cc(S(=O)(=O)NCCC(C)(C)C)ccc21` [Example 49, 1-Methyl-2-oxo-4-trifluoromethyl-1,2-dihydroquinoline-6-sulfonicacid (3,3-dimethylbutyl)amide]: the IC50 was > 10 µM.
In the case of `CC(CNS(=O)(=O)c1ccc2c(c1)c(C(F)(F)F)cc(=O)n2C)c1ccccc1` (centres unmarked) [Example 56, 1-Methyl-2-oxo-4-trifluoromethyl-1,2-dihydroquinoline-6-sulfonicacid (2-phenylpropyl)amide] it was 2.73 µM.
As for `COc1ccc(N(Cc2ccccc2)S(=O)(=O)c2ccc3c(c2)c(C(F)(F)F)cc(=O)n3C)cc1` [Example 46, 1-Methyl-2-oxo-4-trifluoromethyl-1,2-dihydroquinoline-6-sulfonicacid benzyl(4-methoxy-phenyl)amide], the 50% inhibitory concentration (IC50) is > 10 µM.
Compound `Cn1c(=O)cc(C(F)(F)F)c2cc(S(=O)(=O)NCCc3c[nH]c4ccccc34)ccc21` [Example 60, 1-Methyl-2-oxo-4-trifluoromethyl-1,2-dihydroquinoline-6-sulfonicacid [2-(1H-indol-3-yl)ethyl]amide] displayed an IC50 of 6.33 µM.
With `O=c1cc(C(F)(F)F)c2cc(S(=O)(=O)NCc3ccccc3Sc3ccccc3CO)ccc2[nH]1` [Example 155, 2-Oxo-4-trifluoromethyl-1,2-dihydroquinoline-6-sulfonic acid2-(2-hydroxymethyl-phenylsulfanyl)benzylamide], the half-inhibitory concentration (IC50) amounted to 1.94 µM. Compared with the last compound, the IC50 is about 3.3-fold lower.
The result for `Cn1c(=O)cc(C(F)(F)F)c2cc(S(=O)(=O)Nc3cc(C(C)(C)C)cc(C(C)(C)C)c3)ccc21` [Example 45, 1-Methyl-2-oxo-4-trifluoromethyl-1,2-dihydroquinoline-6-sulfonicacid (3,5-di-tert-butylphenyl)amide] reads > 10 µM.
Take `COc1ccccc1NS(=O)(=O)c1ccc2[nH]c(=O)cc(C(F)(F)F)c2c1` [Example 92, 2-Oxo-4-trifluoromethyl-1,2-dihydroquinoline-6-sulfonic acid(2-methoxyphenyl)amide]: the IC50 is > 10 µM.
For the compound `Cn1c(=O)cc(C(F)(F)F)c2cc(S(=O)(=O)Nc3cccc(C(F)(F)F)c3)ccc21` [Example 39, 1-Methyl-2-oxo-4-trifluoromethyl-1,2-dihydroquinoline-6-sulfonicacid (3-trifluoromethylphenyl)-amide], the 50% inhibitory concentration (IC50) was found to be 0.93 µM.
In the case of `Cn1c(=O)cc(C(F)(F)F)c2cc(S(=O)(=O)NCCCCc3ccccc3)ccc21` [Example 57, 1-Methyl-2-oxo-4-trifluoromethyl-1,2-dihydroquinoline-6-sulfonicacid (4-phenylbutyl)amide] it was > 10 µM; in that of `Cn1c(=O)cc(C(F)(F)F)c2cc(S(=O)(=O)NCc3ccccc3C(F)(F)F)ccc21` [Example 62, 1-Methyl-2-oxo-4-trifluoromethyl-1,2-dihydroquinoline-6-sulfonicacid 2-trifluoromethyl-benzylamide], 3.92 µM; in that of `Cn1c(=O)cc(C(F)(F)F)c2cc(S(=O)(=O)Nc3ccc4c(c3)OCO4)ccc21` [Example 26, 1-Methyl-2-oxo-4-trifluoromethyl-1,2-dihydroquinoline-6-sulfonicacid benzo[1,3]dioxol-5-ylamide], 4.04 µM.
As for `O=c1cc(C(F)(F)F)c2cc(S(=O)(=O)Nc3cccc(OC(F)F)c3)ccc2[nH]1` [Example 106, 2-Oxo-4-trifluoromethyl-1,2-dihydroquinoline-6-sulfonic acid(3-difluoromethoxyphenyl)amide], the IC50 worked out at 0.26 µM. This IC50 lies about 16-fold lower than the previous one.
As for `Cc1cc(=O)oc2cc(NS(=O)(=O)c3ccc4c(c3)c(C(F)(F)F)cc(=O)n4C)ccc12` [Example 40, 1-Methyl-2-oxo-4-trifluoromethyl-1,2-dihydroquinoline-6-sulfonic(4-methyl-2-oxo-2H-chromen-7-yl)amide], the IC50 is > 10 µM.
`O=c1cc(C(F)(F)F)c2cc(S(=O)(=O)NCc3c(F)cccc3Cl)ccc2[nH]1` [Example 142, 2-Oxo-4-trifluoromethyl-1,2-dihydroquinoline-6-sulfonic acid2-chloro-6-fluorobenzylamide] yielded an IC50 of 2.39 µM.
`N#CCc1ccc(NS(=O)(=O)c2ccc3[nH]c(=O)cc(C(F)(F)F)c3c2)cc1` [Example 95, 2-Oxo-4-trifluoromethyl-1,2-dihydroquinoline-6-sulfonic acid(4-cyanomethylphenyl)amide] showed an IC50 of 0.84 µM.
Turning to `Cn1c(=O)cc(C(F)(F)F)c2cc(S(=O)(=O)Nc3ccccc3CO)ccc21` [Example 19, 1-Methyl-2-oxo-4-trifluoromethyl-1,2-dihydroquinoline-6-sulfonicacid(2-hydroxymethylphenyl)amide], the IC50 was > 10 µM.
In the case of `Cn1c(=O)cc(C(F)(F)F)c2cc(S(=O)(=O)Nc3cnc4ccccc4c3)ccc21` [Example 33, 1-Methyl-2-oxo-4-trifluoromethyl-1,2-dihydroquinoline-6-sulfonicacid quinolin-3-ylamide] it was > 10 µM.
Turning to `CN(C1CCCCC1)S(=O)(=O)c1ccc2[nH]c(=O)cc(C(F)(F)F)c2c1` [Example 75, 2-Oxo-4-trifluoromethyl-1,2-dihydroquinoline-6-sulfonic acidcyclohexylmethylamide], the midpoint of inhibition, the IC50, lay at 5.72 µM. In other words, the single-digit micromolar range.
Regarding `CC(O)c1cccc(NS(=O)(=O)c2ccc3c(c2)c(C(F)(F)F)cc(=O)n3C)c1` (centres unmarked) [Example 28, 1-Methyl-2-oxo-4-trifluoromethyl-1,2-dihydro-quinoline-6-sulfonic acid [3-(1-hydroxyethyl)phenyl]-amide], the IC50 was > 10 µM.
Turning to `CCOC(=O)Cc1ccc(NS(=O)(=O)c2ccc3c(c2)c(C(F)(F)F)cc(=O)n3C)cc1` [Example 42, [4-(1-Methyl-2-oxo-4-trifluoromethyl-1,2-dihydroquinoline-6-sulfonylamino)phenyl]aceticacid ethyl ester], the IC50 was > 10 µM.
